Source: patent US4436751A, “Nitrobenzyl monates antibacterial compounds” (Beecham Group Limited, priority 1980, dated 1984)
≈ marks a conversion by molar mass, not a printed value. Where two headings read alike, the source gives them in different places.

Tests used:
Assay type in all cases: cell-based
M. hyorhinis ATCC 23234 = assay: Anti-mycoplasmal MIC in vitro, Friis broth agarose (Table 1); conditions: Mesomycoplasma hyorhinis, ATCC23234, 144 h
M. suipneumoniae Str. 11 = assay: as above; conditions: Mesomycoplasma hyopneumoniae
E. coli ESS = assay: Human bacteria MIC, nutrient agar with chocolated horse blood (Table 3); conditions: Escherichia coli; E. coli ESS; nutrient agar 5% chocolated horse blood, 18 hours 37° C.; read-out: MIC
Description: (§1) The values were determined by serial dilutions in nutrient agar with 5% chocolated horse blood after incubations for 18 hours at 37° C.

[1] = tested on: Neisseria catarrhalis 1502; assay: as above
Description: as §1

Bord. bronchiseptica BO9 = assay: Veterinary bacteria MIC, Diagnostic Sensitivity Test Agar (Table 2); conditions: Bordetella bronchiseptica; Bord. bronchiseptica BO9; DST Agar, 10^4 organisms, 18 hours 37° C.; read-out: MIC
Description: (§2) The values were determined using a two fold serial dilutions in Diagnostic Sensitivity Test Agar with an inoculum of 10^4 organisms and incubation for 18 hours at 37° C.

[2] = tested on: Corynebacterium pyogenes CY1; assay: as above; conditions: Trueperella pyogenes
Description: as §2

S. dublin S7 = assay: as above; conditions: Salmonella enterica; S. dublin S7; DST Agar, 10^4 organisms, 18 hours 37° C.; read-out: MIC
Description: as §2

Strep. dylgalactiae SPD1 = assay: as above; conditions: Strep. dylgalactiae SPD1; DST Agar, 10^4 organisms, 18 hours 37° C.; read-out: MIC
Description: as §2

E. Coli NCTC 10418 = assay: as above; conditions: Escherichia coli, NCTC10418; E. Coli NCTC 10418; DST Agar, 10^4 organisms, 18 hours 37° C.; read-out: MIC
Description: as §2

E. Coli E1 = assay: as above; conditions: Escherichia coli; E. Coli E1; DST Agar, 10^4 organisms, 18 hours 37° C.; read-out: MIC
Description: as §2

Strep. agalactiae SPA1 = assay: as above; conditions: Streptococcus agalactiae; Strep. agalactiae SPA1; DST Agar, 10^4 organisms, 18 hours 37° C.; read-out: MIC
Description: as §2

Bord. bronchiseptica BO8 = assay: as above; conditions: Bordetella bronchiseptica
Description: as §2

Staph. aureus 152 = assay: as above; conditions: Staphylococcus aureus; Staph. aureus 152; DST Agar, 10^4 organisms, 18 hours 37° C.; read-out: MIC
Description: as §2

S. typhimurium S18 = assay: as above; conditions: Salmonella enterica; S. typhimurium S18; DST Agar, 10^4 organisms, 18 hours 37° C.; read-out: MIC
Description: as §2

Past. haemolytica PA5 = assay: as above; conditions: Mannheimia haemolytica
Description: as §2

Staph. aureus Oxford = assay: as above; conditions: Staphylococcus aureus; Staph. aureus Oxford; DST Agar, 10^4 organisms, 18 hours 37° C.; read-out: MIC
Description: as §2

Staph. aureus B4 = assay: as above; conditions: Staphylococcus aureus; Staph. aureus B4; DST Agar, 10^4 organisms, 18 hours 37° C.; read-out: MIC
Description: as §2

M. bovis RCTC 10131 = assay: microbe, parasite or virus in culture; conditions: RCTC10131, 144 h
M. dispar RCTC 10125 = assay: Anti-mycoplasmal MIC in vitro, Friis broth agarose (Table 1); conditions: 144 h
M. suipneumoniae JF 435 = assay: as above; conditions: Mesomycoplasma hyopneumoniae, JF435, 144 h
[3] = tested on: M. suipneumoniae PW/C/210; assay: as above; conditions: Mesomycoplasma hyopneumoniae, 144 h
M. suipneumoniae OCD 1 = assay: as above; conditions: Mesomycoplasma hyopneumoniae, OCD1, 144 h
[4] = tested on: M. suipneumoniae J2206/183b; assay: as above; conditions: Mesomycoplasma hyopneumoniae, 144 h
M. pneumoniae ATCC 15492 = assay: as above; conditions: Mycoplasmoides pneumoniae, ATCC15492, 144 h
M. suipneumoniae HR(2) = assay: as above; conditions: Mesomycoplasma hyopneumoniae, 144 h
[5] = tested on: M. suipneumoniae NCTC 10110; assay: as above; conditions: Mesomycoplasma hyopneumoniae, NCTC10110, 144 h
[6] = tested on: M. bovigenitalium ATOC 14173; assay: as above; conditions: 144 h
[7] = Corynebacterium pyogenes CY1, DST Agar, 10^4 organisms, 18 hours 37° C., read-out: MIC
[8] = Bord. bronchiseptica BO8, DST Agar, 10^4 organisms, 18 hours 37° C., read-out: MIC
[9] = Past. haemolytica PA5, DST Agar, 10^4 organisms, 18 hours 37° C., read-out: MIC
[10] = M. suipneumoniae JF 435, in vitro, 6 days 37° C., read-out: MIC
[11] = M. suipneumoniae OCD 1, in vitro, 6 days 37° C., read-out: MIC
[12] = M. suipneumoniae J2206/183b, in vitro, 6 days 37° C., read-out: MIC
[13] = M. suipneumoniae HR(2), in vitro, 6 days 37° C., read-out: MIC

| SMILES | MIC (E. coli ESS) | MIC (Bord. bronchiseptica BO9) | MIC [2, 7] | MIC (S. dublin S7) | MIC (Strep. dylgalactiae SPD1) | MIC (E. Coli NCTC 10418) | MIC (E. Coli E1) | MIC (Strep. agalactiae SPA1) | MIC (Bord. bronchiseptica BO8; [8]) | MIC (Staph. aureus 152) | MIC (S. typhimurium S18) | MIC (Past. haemolytica PA5; [9]) | MIC (Staph. aureus Oxford) | MIC (Staph. aureus B4) | MIC (M. bovis RCTC 10131) | MIC (M. dispar RCTC 10125) | MIC (M. suipneumoniae JF 435; [10]) | MIC (M. suipneumoniae OCD 1; [11]) | MIC [4, 12] | MIC [6] | also measured |
| --- | --- | --- | --- | --- | --- | --- | --- | --- | --- | --- | --- | --- | --- | --- | --- | --- | --- | --- | --- | --- | --- |
| C/C(=C\C(=O)OC(C)c1cccc([N+](=O)[O-])c1)CC1OCC(CC2OC2C(C)C(C)O)C(O)C1O (stereo not shown) [Example 3, 1-(m-nitrophenyl)ethyl monate A] | 10 µg/mL (≈ 20.3 µM) | 80 µg/mL (≈ 162 µM) | > 80 µg/mL | > 80 µg/mL | 1.25 µg/mL (≈ 2.53 µM) | > 80 µg/mL | > 80 µg/mL | 2.5 µg/mL (≈ 5.07 µM) | > 80 µg/mL | 2.5 µg/mL (≈ 5.07 µM) | > 80 µg/mL | 40 µg/mL (≈ 81 µM) | 2.5 µg/mL (≈ 5.07 µM) | 2.5 µg/mL (≈ 5.07 µM) | 0.025 µg/mL (≈ 0.0507 µM) | 0.05 µg/mL (≈ 0.101 µM) | 0.25 µg/mL (≈ 0.507 µM) | 0.25 µg/mL (≈ 0.507 µM) | 0.25 µg/mL (≈ 0.507 µM) | 0.05 µg/mL (≈ 0.101 µM) | MIC (M. hyorhinis ATCC 23234; M. hyorhinis ATCC 23234, in vitro, 6 days 37° C., read-out: MIC): 0.1 µg/mL (≈ 0.203 µM); MIC (M. suipneumoniae Str. 11; 144 h, M. suipneumoniae Str. 11, in vitro, 6 days 37° C., read-out: MIC): 0.1 µg/mL (≈ 0.203 µM); MIC ([1]; Neisseria, 1502, 18 h): 1 µg/mL (≈ 2.03 µM); MIC ([3]; M. suipneumoniae PW/C/210, in vitro, 6 days 37° C., read-out: MIC): 0.1 µg/mL (≈ 0.203 µM); MIC (M. pneumoniae ATCC 15492): 5 µg/mL (≈ 10.1 µM); MIC (M. suipneumoniae HR(2); [13]): 0.25 µg/mL (≈ 0.507 µM); MIC ([5]; M. suipneumoniae NCTC 10110, in vitro, 6 days 37° C., read-out: MIC): 0.25 µg/mL (≈ 0.507 µM) |
| C/C(=C\C(=O)OCc1ccc([N+](=O)[O-])cc1)CC1OCC(CC2OC2C(C)C(C)O)C(O)C1O (stereo not shown) [Example 1, p-nitrobenzyl monate A] | 0.5 µg/mL (≈ 1.04 µM) | 1.25 µg/mL (≈ 2.61 µM) | – | 40 µg/mL (≈ 83.4 µM) | 0.07 µg/mL (≈ 0.146 µM) | 40 µg/mL (≈ 83.4 µM) | 40 µg/mL (≈ 83.4 µM) | 0.317 µg/mL (≈ 0.661 µM) | – | 0.156 µg/mL (≈ 0.325 µM) | 40 µg/mL (≈ 83.4 µM) | – | 0.156 µg/mL (≈ 0.325 µM) | 0.156 µg/mL (≈ 0.325 µM) | < 0.01 µg/mL | 0.025 µg/mL (≈ 0.0521 µM) | 0.1 µg/mL (≈ 0.209 µM) | 0.1 µg/mL (≈ 0.209 µM) | 0.1 µg/mL (≈ 0.209 µM) | < 0.01 µg/mL | MIC (M. hyorhinis ATCC 23234): 0.05 µg/mL (≈ 0.104 µM); MIC (M. suipneumoniae Str. 11; STR.11, 144 h): 0.05 µg/mL (≈ 0.104 µM); MIC ([2]; CY1, 18 h): > 80 µg/mL; MIC (Bord. bronchiseptica BO8; BO8, 18 h): 5 µg/mL (≈ 10.4 µM); MIC (Past. haemolytica PA5; PA5, 18 h): 1.25 µg/mL (≈ 2.61 µM); MIC [3]: 0.05 µg/mL (≈ 0.104 µM); MIC (M. pneumoniae ATCC 15492; M. pneumoniae ATCC 15492, in vitro, 6 days 37° C., read-out: MIC): 0.1 µg/mL (≈ 0.209 µM); MIC (M. suipneumoniae HR(2); [13]): 0.1 µg/mL (≈ 0.209 µM); MIC [5]: 0.05 µg/mL (≈ 0.104 µM) |
| C/C(=C\C(=O)OCc1cccc([N+](=O)[O-])c1)CC1OCC(C/C=C/C(C)C(C)O)C(O)C1O (stereo not shown) [Example 5, m-nitrobenzyl monate C] | 10 µg/mL (≈ 21.6 µM) | 40 µg/mL (≈ 86.3 µM) | > 80 µg/mL | > 80 µg/mL | 1.25 µg/mL (≈ 2.7 µM) | > 80 µg/mL | > 80 µg/mL | 2.5 µg/mL (≈ 5.39 µM) | > 80 µg/mL | 2.5 µg/mL (≈ 5.39 µM) | > 80 µg/mL | 40 µg/mL (≈ 86.3 µM) | 2.5 µg/mL (≈ 5.39 µM) | 2.5 µg/mL (≈ 5.39 µM) | 0.1 µg/mL (≈ 0.216 µM) | 0.1 µg/mL (≈ 0.216 µM) | – | – | – | 0.1 µg/mL (≈ 0.216 µM) | MIC (M. hyorhinis ATCC 23234): 0.25 µg/mL (≈ 0.539 µM); MIC (M. suipneumoniae Str. 11; STR.11, 144 h): 0.1 µg/mL (≈ 0.216 µM); MIC ([1]; Neisseria catarrhalis 1502, nutrient agar 5% chocolated horse blood, 18 hours 37° C., read-out: MIC): 1 µg/mL (≈ 2.16 µM); MIC (M. suipneumoniae JF 435): 0.25 µg/mL (≈ 0.539 µM); MIC [3]: 0.1 µg/mL (≈ 0.216 µM); MIC (M. suipneumoniae OCD 1): 0.25 µg/mL (≈ 0.539 µM); MIC ([4]; J2206/183B): 0.25 µg/mL (≈ 0.539 µM); MIC (M. suipneumoniae HR(2)): 0.25 µg/mL (≈ 0.539 µM); MIC [5]: 0.25 µg/mL (≈ 0.539 µM) |
